Experiments:
[1] = X-ray scattering of thin-film coatings (Example 10); assay type: physicochemical; conditions: 95 wt% sorbitan ester / 5 wt% sodium stearate; film cast from 30 g/L aqueous solution, dried 40° C. 4 hours
Text: As used herein, “lamellar structure” refers to a structure comprising lamella(e) vertically stacked adjacent to each other and held together by intermolecular forces. As used herein, “lamella(e)” refers to one lamella or two or more lamellae, that is, one or more discrete layers of molecules, respectively. In some embodiments, the molecules present in the lamella(e) are ordered (e.g., aligned, as in an open bilayer). The distance between a surface of a lamella and a surface of an adjacent lamella that is facing the same direction is referred to herein as “interlayer spacing” or “periodic spacing”. Interlayer spacing between two lamellae is determined by (1) obtaining an out-of-plane X-ray scattering image of a coating, (2) determining the scattering vector (q) of the peak corresponding to the lamellar structure, and (3) using Bragg’s equation below, determine the interlayer spacing (d).
Coating agents were applied to the surface of a plastic substrate, which acts as a hydrophilic surface when exposed to air. An X-ray scattering image of the applied coat was obtained to identify characteristics of the coating.
Specifically, a coating agent of sorbitan monostearate (95 wt%) and sodium stearate (5 wt%) was applied to a substrate as a thin-film. The films were drop cast from a 30 g/L aqueous solution and dried at 40° C. for 4 hours. […] “LAM” refers to lamellar or bilayer morphology. […]

[2] = test system: California avocados; assay: Respiration factor of coated California avocados (Example 11); assay type: in vivo, avocado; conditions: 30 g/L sorbitan ester
Text: (§1) As used herein, the term “respiration rate” refers to the rate at which the product releases gas, such as CO2. This rate can be determined from the volume of gas (e.g., CO2) (at standard temperature and pressure) released per unit time per unit weight of the product. The respiration rate can be expressed as ml gas/kg·hour. The respiration rate of the product can be measured by placing the product in a closed container of known volume that is equipped with a sensor, such as a CO2 sensor, recording the gas concentration within the container as a function of time, and then calculating the rate of gas release required to obtain the measured concentration values.
(§2) As used herein, the term “respiration factor” is defined as the ratio of the average gas diffusion (e.g., CO2 release) of uncoated produce (measured for a control group) to the average gas diffusion of the corresponding tested produce (e.g., coated produce) over a given time.
FIG. 17 is a graph showing mass loss factors for California avocados. The Untreated group of avocadoes was not treated. A second group of avocados was treated with 15 g/L of Treatment C. A third group of avocados was treated with 30 g/L of Treatment C. A fourth group of avocados was treated with 30 g/L sorbitan monopalmitate (MP) (100 wt%). A fifth group of avocados was treated with a 30 g/L sorbitan monostearate (MS). […]

[3] = test system: Mexican avocados; assay: Mass loss factor of coated Mexican avocados (Example 12); assay type: in vivo, avocado; conditions: brush bed, dried 70° C., sorbitan monostearate as 94 wt% with 6 wt% sodium stearate
Experimental: (§3) As used herein, the term “mass loss factor” is defined as the ratio of the average mass loss rate of uncoated produce (measured for a control group) to the average mass loss rate of the corresponding tested produce (e.g., coated produce) over a given time.
FIG. 19 is a graph showing mass loss factors (MLF) for Mexican avocados. A first group of avocados was not treated. A second group of avocados was treated with 20 g/L of Treatment C. A third group of avocados was treated with 40 g/L of Treatment C. The monoglyceride coatings were mixed with a high shear mixer. A fourth group of avocados was treated with 20 g/L of a mixture of sorbitan monostearate (94 wt%) and sodium stearate (6 wt%). A fifth group of avocados was treated with 40 g/L of a mixture of sorbitan monostearate (94 wt%) and sodium stearate (6 wt%). The sorbitan monostearate coatings were mixed with blenders. The coatings were applied using a brush bed and were dried at a temperature of 70° C. […] The MLF of 20 g/L of […] monostearate/sodium stearate was 1.49 and the MLF of the 40 g/L 95/5 monostearate/sodium stearate was 2.24.

[4] = test system: Mexican avocados; assay: Respiration factor of coated Mexican avocados (Example 12); assay type: in vivo, avocado; conditions: day 1
Text: as §1, §2
FIG. 19 is a graph showing mass loss factors (MLF) for Mexican avocados. A first group of avocados was not treated. A second group of avocados was treated with 20 g/L of Treatment C. A third group of avocados was treated with 40 g/L of Treatment C. The monoglyceride coatings were mixed with a high shear mixer. A fourth group of avocados was treated with 20 g/L of a mixture of sorbitan monostearate (94 wt%) and sodium stearate (6 wt%). […]

[5] = test system: unwaxed pixie oranges; assay: Mass loss factor of coated unwaxed pixie oranges (Example 13); assay type: in vivo, orange; conditions: 2 g/L sorbitan monolaurate added to 50 g/L 95/5 monostearate/sodium stearate, bowl dip, 70° C.
Experimental: as §3
FIG. 21 is a graph showing mass loss factors for unwaxed pixie oranges (“pixies”). One group of pixies was not treated. A second group of pixies was treated with 50 g/L of Treatment C. A third group of pixies was treated with 50 g/L of Treatment C and 2 g/L of a wetting agent (WAG). A fourth group of pixies was treated with 50 g/L of a 95/5 mixture of monostearate/sodium stearate and 2 g/L sorbitan monolaurate. The coatings were applied using a bowl dip method and were dried at a temperature of 70° C. […] The pixies were mostly dry (~80%) coming out of the heat tunnel.

Row | periodicity of alternating bilayers [1] [nm] | Substance | respiration factor compared with 95/5 monostearate/sodium stearate at 30 g/L [2] | MLF (mass loss factor) ([3]; 20 g/L) | MLF (mass loss factor) ([3]; 40 g/L) | RF (respiration factor) ([4]; 20 g/L) | RF (respiration factor) ([4]; 40 g/L) | mass loss factor increase compared to the untreated substrates [5] [times]
1 | 5.5 | sorbitan monostearate | comparable | 1.83 | 2.32 | 1.15 | 1.25 | –
2 | – | sorbitan monolaurate | – | – | – | – | – | 3.56
3 | 5.6 | sorbitan monopalmitate | higher | – | – | – | – | –

Source: US20230072790A1, “COMPOUNDS AND FORMULATIONS FOR PROTECTIVE COATINGS” (Apeel Technology, Inc., priority 2021, published 2023)
